From PMC8246065 (The EMBO Journal, 2021)

How the values were obtained:
NOD1 [1] = target: T1, NOD1 (Homo sapiens, UniProt Q9Y239); assay: Microscale thermophoresis (MST) binding to purified NOD1-GFP; settings: read-out: Kd value of ADP alone with NOD1
T1 sequence (Q9Y239 1-953): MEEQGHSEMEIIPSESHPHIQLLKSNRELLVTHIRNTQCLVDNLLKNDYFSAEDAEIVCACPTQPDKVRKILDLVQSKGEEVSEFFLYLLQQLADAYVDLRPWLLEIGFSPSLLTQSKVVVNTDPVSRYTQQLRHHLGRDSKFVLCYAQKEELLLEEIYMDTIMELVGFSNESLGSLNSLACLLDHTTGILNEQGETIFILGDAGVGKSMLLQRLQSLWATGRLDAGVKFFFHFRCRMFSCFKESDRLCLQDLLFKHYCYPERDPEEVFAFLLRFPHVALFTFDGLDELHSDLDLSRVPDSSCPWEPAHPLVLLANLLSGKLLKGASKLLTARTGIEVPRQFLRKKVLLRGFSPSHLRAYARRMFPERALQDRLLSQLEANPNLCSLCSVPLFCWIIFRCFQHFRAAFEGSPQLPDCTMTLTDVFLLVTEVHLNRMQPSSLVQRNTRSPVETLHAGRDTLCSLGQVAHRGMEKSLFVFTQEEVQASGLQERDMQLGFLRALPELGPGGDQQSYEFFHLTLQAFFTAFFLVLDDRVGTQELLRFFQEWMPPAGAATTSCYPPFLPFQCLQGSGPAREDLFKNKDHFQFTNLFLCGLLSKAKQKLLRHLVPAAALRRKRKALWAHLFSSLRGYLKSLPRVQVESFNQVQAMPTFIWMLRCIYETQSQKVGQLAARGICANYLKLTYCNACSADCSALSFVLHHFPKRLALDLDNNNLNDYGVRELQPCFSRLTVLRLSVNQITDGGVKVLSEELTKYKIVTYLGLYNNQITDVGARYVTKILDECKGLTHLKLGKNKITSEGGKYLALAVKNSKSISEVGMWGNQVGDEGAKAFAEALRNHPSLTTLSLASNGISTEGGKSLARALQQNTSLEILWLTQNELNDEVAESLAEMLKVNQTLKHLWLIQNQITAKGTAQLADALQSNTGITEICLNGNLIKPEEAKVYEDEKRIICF
Experimental: (§1) The lysates were incubated with 2 ml GFP‐Trap agarose at 4°C for 4 h. The agarose was collected with Poly‐Prep columns by gravity flow. […] To remove heat shock proteins, columns were further washed with 50 ml wash buffer III (50 mM Tris–HCl, pH 7.5, 150 mM NaCl, 5 mM MgCl2+, 1 mM ATP). To elute the proteins, the agarose was mixed with 2 ml elution buffer (100 mM Glycine, pH 2.5) for 1 min and the eluted proteins were immediately neutralized with 0.2 ml of 1 M Tris, pH 10.5.

NOD2 = NOD2 (Homo sapiens, UniProt Q9HC29); assay: Microscale thermophoresis (MST) binding to purified NOD2-GFP; settings: read-out: Kd value of ADP alone with NOD2
Chain of NOD2 (Q9HC29 whole entry): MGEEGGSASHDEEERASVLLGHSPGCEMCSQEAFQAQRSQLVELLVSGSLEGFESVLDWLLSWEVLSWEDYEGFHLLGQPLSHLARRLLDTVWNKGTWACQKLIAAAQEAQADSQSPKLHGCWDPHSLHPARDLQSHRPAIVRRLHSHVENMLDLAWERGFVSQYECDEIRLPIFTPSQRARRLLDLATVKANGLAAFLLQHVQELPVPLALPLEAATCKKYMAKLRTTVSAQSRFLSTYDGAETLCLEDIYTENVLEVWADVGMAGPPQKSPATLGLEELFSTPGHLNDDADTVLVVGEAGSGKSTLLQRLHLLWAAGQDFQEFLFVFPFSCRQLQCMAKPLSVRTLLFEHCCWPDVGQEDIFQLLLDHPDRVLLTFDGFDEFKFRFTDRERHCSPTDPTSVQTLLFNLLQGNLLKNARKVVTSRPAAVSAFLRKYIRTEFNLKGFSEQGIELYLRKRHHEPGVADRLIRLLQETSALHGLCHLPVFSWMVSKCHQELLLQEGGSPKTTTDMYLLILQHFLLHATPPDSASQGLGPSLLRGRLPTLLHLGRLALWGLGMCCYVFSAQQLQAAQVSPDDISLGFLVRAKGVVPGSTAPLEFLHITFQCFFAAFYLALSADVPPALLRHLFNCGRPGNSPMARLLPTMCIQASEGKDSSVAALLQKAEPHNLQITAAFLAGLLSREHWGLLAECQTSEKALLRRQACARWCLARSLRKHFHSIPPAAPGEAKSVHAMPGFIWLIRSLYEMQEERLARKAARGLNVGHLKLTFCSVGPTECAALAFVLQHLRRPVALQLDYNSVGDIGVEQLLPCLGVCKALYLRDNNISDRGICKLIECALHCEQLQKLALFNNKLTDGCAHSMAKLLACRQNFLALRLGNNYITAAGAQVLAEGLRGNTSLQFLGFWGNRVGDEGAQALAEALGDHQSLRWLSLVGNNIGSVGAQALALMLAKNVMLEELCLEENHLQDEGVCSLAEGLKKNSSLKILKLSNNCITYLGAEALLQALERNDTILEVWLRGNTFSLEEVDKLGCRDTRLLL
Experimental: as §1

NOD1 [2] = test system: NOD1; design: method as in Askari et al, 2012; settings: quoted by referee; ref Askari et al, 2012; read-out: NOD1 affinity, IC50; cited from earlier work
[3] = test system: human dermal fibroblasts (HDFs); assay: S1P quantification by ELISA in cell lysates; assay type: cell-based; settings: primary fibroblasts, Fig 3C
Experimental: Human neonatal dermal fibroblasts were grown in DMEM full medium. For each condition, 2x T75 flask cells were required. After 4‐h stimulation with various stressors, cells were washed with PBS and collected in lysis buffer (20 mM PIPES PH7.4, 150 mM NaCl, 1 mM EGTA, 1% v/v Triton X‐100, 1.5 mM MgCl2, 0.1% SDS, 1X PhosSTOP, 1X Protease inhibitor cocktail without EDTA). Protein concentration was measured by BCA assay kit (Thermo Fisher) and diluted with delipidized serum to 1 µg/µl. Then, the diluted samples were added into S1P ELISA plates according to the instructions.

BMDMs and fibroblasts = assay: Cell death upon stressor treatment; assay type: cell-based; settings: same concentration
Experimental: Cell viability assays were performed with CellTiter 96 AQueous one solution reagent (Promega) according to the manufacturer’s instructions. Cell viability upon various stimulations was normalized to corresponding controls.

THP‐1 cells = assay: IL6 expression and production in THP-1 cells upon ER stress (de novo vs hydrolysis pathway inhibitors); assay type: cell-based, human; settings: THP-1, tunicamycin 5 µg/ml, Appendix Fig S2
Experimental: The human monocytic cell line THP‐1 was obtained from the American Type Culture Collection (ATCC, TIB‐202) and maintained in RPMI 1640 (Gibco, 31870) with 10% (v:v) heat‐inactivated fetal bovine serum (FBS, Sigma‐Aldrich, F0804), 1 mM sodium pyruvate (Gibco, 11360070), 2 mM L‐glutamine (Gibco, 25030081), 10 mM HEPES buffer (Gibco, 15630080), pH 7.2‐7.5, and 50 µM 2‐mercaptoethanol (Gibco, 31350010). To differentiate THP‐1 into macrophage‐like cells, THP‐1 cells were stimulated with 50 ng/ml phorbol 12‐myristate 13‐acetate (Sigma‐Aldrich, P8139) for 24 h and then incubated with fresh medium for another 48 h. HEK293T WT and HEK293T NOD1/2 dKO cells were generated as described (Dagil et al, 2016). HeLa inducible NOD1‐GFP and NOD2‐GFP cells were generated by co‐transfection of pcDNA5/FRT/TO‐EGFP‐NOD1 or pcDNA5/FRT/TO‐EGFP‐NOD2 (Addgene #131206 and #131207) together with pOG44 in a 9:1 ratio into HeLa FlpIN T‐REx cells (kindly provided by the Hentze Lab, EMBL, Heidelberg) using Lipofectamine 2000 (Thermo Fisher Scientific) and selected with 10 µg/ml blasticidin and 500 µg/ml hygromycin B. HeLa inducible NOD1‐GFP and NOD2‐GFP cells, human neonatal dermal fibroblasts, and HEK293T cells (DSMZ, ACC305) were maintained in complete Dulbecco’s modified Eagle’s medium (DMEM) 4.5 g/l glucose (Gibco, 10938) with 10% (v:v) heat‐inactivated FBS, 1 mM sodium pyruvate, and 2 mM L‐glutamine. To induce NOD1 or NOD2 expression, HeLa NOD1 or NOD2 cells were treated with 0.5 µg/ml or 0.25 µg/ml doxycycline for at least 16 h, respectively. All cells have been checked for mycoplasma contamination regularly. […]
(§2) Total RNA was isolated with TRIzol reagent, as described by the manufacturer (Invitrogen). […] Gene expression was normalized to glyceraldehyde‐3‐phosphate dehydrogenase (GAPDH), and fold changes were calculated against corresponding controls. qRT–PCR data were representative of at least three independent experiments, with at least 2 technical replicates per experiment. […]

[4] = test system: THP‐1 cells, BMDMs, and human CD14+ monocytes; assay: IL6 expression and production upon tunicamycin-induced ER stress with sphingolipid pathway inhibitors; assay type: cell-based; settings: inhibitor pretreatment, tunicamycin 5 µg/ml; all types of cells
Experimental: (§3) The human monocytic cell line THP‐1 was obtained from the American Type Culture Collection (ATCC, TIB‐202) and maintained in RPMI 1640 (Gibco, 31870) with 10% (v:v) heat‐inactivated fetal bovine serum (FBS, Sigma‐Aldrich, F0804), 1 mM sodium pyruvate (Gibco, 11360070), 2 mM L‐glutamine (Gibco, 25030081), 10 mM HEPES buffer (Gibco, 15630080), pH 7.2‐7.5, and 50 µM 2‐mercaptoethanol (Gibco, 31350010). To differentiate THP‐1 into macrophage‐like cells, THP‐1 cells were stimulated with 50 ng/ml phorbol 12‐myristate 13‐acetate (Sigma‐Aldrich, P8139) for 24 h and then incubated with fresh medium for another 48 h. HEK293T WT and HEK293T NOD1/2 dKO cells were generated as described (Dagil et al, 2016). […]
as §2

[5] = test system: HDFs and HeLa inducible NOD1 or NOD2 cells; assay: IL6 expression and production in response to various stressors with sphingosine kinase inhibition; assay type: cell-based, human; settings: SPHKi 50 µM (Fig 3D-G)
Experimental: as §3, §2

SMILES: Nc1ncnc2c1ncn2[C@@H]1O[C@H](COP(=O)(O)OP(=O)(O)O)[C@@H](O)[C@H]1O [ADP]
- Kd (NOD1 [1]): ~100 nM
- Kd (NOD2): ~150 nM
- IC50 (NOD1 [2]): ~190 nM

SMILES: Nc1ncnc2c1ncn2[C@@H]1O[C@H](COP(=O)(O)OP(=O)(O)OP(=O)(O)O)[C@@H](O)[C@H]1O [ATP]
- IC50 (NOD1 [2]): ~15 nM

SMILES: C[C@@H]1C[C@@H]([C@H](O)CC2CC(=O)NC(=O)C2)C(=O)[C@@H](C)C1 [CHX, cycloheximide]
- Level of S1P in fibroblasts upon stressor [3]: highest level of S1P in fibroblasts
- Cell death in BMDMs compared with fibroblasts (BMDMs and fibroblasts): higher

SMILES: O=C(/C=C/c1ccc(/C=C/C(=O)Nc2ccc(C3=NCCN3)cc2)cc1)Nc1ccc(C2=NCCN2)cc1 [GW4869]
- IL6 expression and production upon ER stress (THP‐1 cells): not

SMILES: N[C@H]1CON=C1O [L‐cycloserine]
- IL6 expression and production upon ER stress (THP‐1 cells): not

SMILES: Oc1ccc(Nc2nc(-c3ccc(Cl)cc3)cs2)cc1 [SKI‐II]
- IL6 expression and production upon tunicamycin-induced ER stress [4]: abolished
- IL6 expression and production in response to various stressors [5]: markedly diminished

SMILES: COc1ccc(/C=C/C(=O)c2c(-c3ccccc3)c3ccccc3[nH]c2=O)cc1 [ceranib‐2]
- IL6 expression and production upon tunicamycin-induced ER stress [4]: abolished

SMILES: CN(C)CCCN1c2ccccc2CCc2ccccc21 [imipramine]
- IL6 expression and production upon ER stress (THP‐1 cells): abrogated
